Source: EP0819121B1, “TRICYCLIC COMPOUNDS USEFUL FOR INHIBITION OF G-PROTEIN FUNCTION AND FOR TREATMENT OF PROLIFERATIVE DISEASES” (SCHERING CORPORATION, priority 1995, dated 1996)
pIC50: −log10 of the molar value.

Molecular target: farnesyl protein transferase (Homo sapiens, UniProt P49354+P49356)
Assay: FPT inhibition, in vitro enzyme assay (SPA, transfer of [3H]farnesyl to biotinylated Ras-peptide; or methods of WO 95/10516)
Type: biochemical
Conditions: values given as ranges
Experimental: (§1) In some assays, FPT IC50 (inhibition of farnesyl protein transferase, in vitro enzyme assay) is determined by the methods described in WO 95/10516. COS Cell IC50 (Cell-Based Assay) and Cell Mat assay are determined by the methods described in WO 95/10516. GGPT IC50 (geranylgeranyl protein transferase, in vitro enzyme assay) and in vitro tumor activity can be determined by the methods disclosed in WO 95/10516.
In some assays, the inhibition of famesyi protein transferase was assayed by measuring the transfer of [^3H]farnesyl from [^3H]famesylpyrophosphate to biotinylated Ras-peptide (biotin-KKSKTKCVIM) using the conditions described below for each 96-well plate to be tested.
An assay buffer is prepared consisting of 40 mM Hepes, pH 7.5; 5 mM dithiothreitol; 20 mM magnesium chloride and 0.01 (v/v)% Igepal nonionic detergent.
A SPA (scintillation proximity assay) bead suspension is prepared consisting of 50 mg of Streptavidin SPA beads (Amersham Life-Science) suspended in 2.5 mL of PBS (phosphate buffered saline). Immediately prior to running the assay a stop solution is prepared consisting of 480 µL of the SPA bead suspension mixed with 6720 µL of a solution consisting of 250 mM EDTA (pH 8.0) and 0.5% Bovine Serium Albumin (Fraction V, 96-99% albumin).
(§2) In some assays, to determine FPT IC50, an assay mixture is prepared consisting of 480 µL of assay buffer and 3052.8 µL of water. This mixture is vortexed to homogeneity and 48 µL of the Ras peptide is added. The mixture is vortexed and 15.36 µL of FPP and 3.84 µL of [^3H]FPP are added and the mixture vortexed again. 37.5 µL of this assay mixture and 2.5µL of a DMSO solution (at test concentration) of the compound being tested are then added to each well of a Costar polypropylene U-bottom microtiter plate. The plate is sonicated for 15 minutes at 37°C and then shaken for 15 minutes on a plate shaker. 10 µL of the enzyme (recombinant Human farnesyl protein transferase) is added to each well using a Beckman Biomek 2000. The plate is incubated at room temperature for 20 minutes and then quenched with 75 µL of the stop solution. 100 µL of the quenched reaction mixture from each well is then transferred to a Wallac crosstalk-free microtiter plate using a Beckman Biomek 2000. Radioactivity is measured in a Wallac 1450 Microbeta plus liquid scintillation counter. Percent inhibition is calculated relative to an uninhibited control.
as §2, with “farnesyl transferase inhibition,” for “FPT IC50,”, “buffer,” for “buffer and”, “water and 240 µL of DMSO.” for “water.”, “40” for “37.5”, “is” for “and 2.5µL of a DMSO solution (at test concentration) of the compound being tested are”, “plate, each well of which contains a dry sample of the compound being tested.” for “plate.”

Compound	pIC50	FPT Inhibition IC50
N[C@@H](CS)CN1CCN(C2c3ccc(Cl)cc3CCc3cc(Br)cnc32)CC1 (some centres unmarked) [EX1]	< 4.00	
N[C@@H](CSSC[C@H](N)C(=O)N1CCN(C2c3ccc(Cl)cc3CCc3cc(Br)cnc32)CC1)C(=O)N1CCN(C2c3ccc(Cl)cc3CCc3cc(Br)cnc32)CC1 (some centres unmarked) [EX 20, Step B]		10 to 10000 nM
N[C@@H](CS)C(=O)N1CCN(C2c3ccc(Cl)cc3CCc3cc(Br)cnc32)CC1 (some centres unmarked) [EX 21, Step B]		10 to 10000 nM
COc1ccc(CSC[C@H](NC(=O)OC(C)(C)C)C(=O)N2CCC(=C3c4ccc(Cl)cc4CCc4cccnc43)CC2)cc1 [EX 30]		10 to 10000 nM
COc1ccc(CSC[C@H](N)C(=O)N2CCC(=C3c4ccc(Cl)cc4CCc4cccnc43)CC2)cc1 [EX 31]		10 to 10000 nM
CNC(=O)C1CN(C2c3ccc(Cl)cc3CCc3cc(Br)cnc32)CCN1C(=O)Cc1cccnc1 (centres unmarked) [EX 32-A]		10 to 10000 nM
CC(C)NC(=O)C1CN(C2c3ccc(Cl)cc3CCc3cc(Br)cnc32)CCN1C(=O)Cc1cccnc1 (centres unmarked) [EX 32-B]		10 to 10000 nM
CC(C)NC(=O)C1CN(C2c3ccc(Cl)cc3CCc3cc(Br)cnc32)CCN1C(=O)Cc1ccncc1 (centres unmarked) [EX 32-C]		10 to 10000 nM
CCOC(=O)C1CN(C2c3ccc(Cl)cc3CCc3cc(Br)cnc32)CCN1C(=O)Cc1cccnc1 (centres unmarked) [EX 33]		10 to 10000 nM
CC(C)NC(=O)CC1CN(C2c3ccc(Cl)cc3CCc3cc(Br)cnc32)CCN1C(=O)Cc1cccnc1 (centres unmarked) [EX 34]		10 to 10000 nM
CCCC[C@H]1CN(C2c3ccc(Cl)cc3CCc3cc(Br)cnc32)CCN1C(=O)Cc1cc[n+]([O-])cc1 (some centres unmarked) [EX 36]		10 to 10000 nM
CCCC[C@H]1CN(C2c3ccc(Cl)cc3CCc3cc(Br)cnc32)CCN1C(=O)CC1CCN(C(N)=O)CC1 (some centres unmarked) [EX 37, Step C]		10 to 10000 nM
COCC[C@H]1CN(C2c3ccc(Cl)cc3CCc3cc(Br)cnc32)CCN1C(=O)CC1CCNCC1 (some centres unmarked) [EX 39, Step B]		10 to 10000 nM
COCC[C@H]1CN(C2c3ccc(Cl)cc3CCc3cc(Br)cnc32)CCN1C(=O)CC1CCN(C(N)=O)CC1 (some centres unmarked) [EX 39, Step C]		10 to 10000 nM
CCCCNC(=O)C1CN(C2c3ccc(Cl)cc3CCc3cc(Br)cnc32)CCN1C(=O)CC1CCN(C(N)=O)CC1 (centres unmarked) [EX 41]		10 to 10000 nM
O=C(NCc1cccnc1)C1CN(C2c3ccc(Cl)cc3CCc3cc(Br)cnc32)CCN1C(=O)CCc1ccccc1 (centres unmarked) [EX 43]		10 to 10000 nM
CCCCNC(=O)C1CN(C2c3ccc(Cl)cc3CCc3cc(Br)cnc32)CCN1C(=O)OC1CCN(C(C)=O)CC1 (centres unmarked) [EX 44]		10 to 10000 nM
CNC(=O)CC1CN(C2c3ccc(Cl)cc3CCc3cc(Br)cnc32)CCN1C(=O)Cc1cccnc1 (centres unmarked) [EX 46]		10 to 10000 nM
O=C(NC1CC1)C1CN(C2c3ccc(Cl)cc3CCc3cc(Br)cnc32)CCN1C(=O)Cc1ccncc1 (centres unmarked) [EX 47]		10 to 10000 nM
CN(Cc1ccccc1[N+](=O)[O-])C(=O)C1CN(C2c3ccc(Cl)cc3CCc3cc(Br)cnc32)CCN1C(=O)Cc1cccnc1 (centres unmarked) [EX 48]	4.00 to 5.00	
O=C(Cc1ccncc1)N1CCN(C2c3ccc(Cl)cc3CCc3cc(Br)cnc32)CC1CO (centres unmarked) [EX 50]		10 to 10000 nM
CNC(=O)CC1CN(C2c3ccc(Cl)cc3CCc3cc(Br)cnc32)CCN1C(=O)Cc1ccncc1 (centres unmarked) [EX 51]		10 to 10000 nM
O=C(CC1CN(C2c3ccc(Cl)cc3CCc3cc(Br)cnc32)CCN1C(=O)Cc1ccncc1)NC1CC1 (centres unmarked) [EX 54]		10 to 10000 nM
CNC(=O)C1CN(C2c3ccc(Cl)cc3CCc3cc(Br)cnc32)CCN1C(=O)Cc1ccncc1 (centres unmarked) [EX 55]		10 to 10000 nM
N[C@@H](CS)CN1CCC(=C2c3ccc(Cl)cc3CCc3cc(Br)cnc32)CC1 [EX 56A]	< 4.00	
CC(C)N(C)C(=O)C1CN(C2c3ccc(Cl)cc3CCc3cc(Br)cnc32)CCN1C(=O)Cc1ccncc1 (centres unmarked) [EX 56]		10 to 10000 nM
COCC[C@H]1CN(C2c3ccc(Cl)cc3CCc3cc(Br)cnc32)CCN1C(=O)Cc1cc[n+]([O-])cc1 (some centres unmarked) [Ex 38]		10 to 10000 nM

Test system: Tumor Cells
Assay: Cell Mat assay, cell growth inhibition, tumor cells (methods of WO 95/10516)
Type: cell-based
Conditions: read-out: Cell Growth Inhibition MAT Assay Tumor Cells IC50
Experimental: as §1

Compound	pIC50
COc1ccc(CSC[C@H](NC(=O)OC(C)(C)C)C(=O)N2CCC(=C3c4ccc(Cl)cc4CCc4cccnc43)CC2)cc1 [EX 30]	< 4.30
COc1ccc(CSC[C@H](N)C(=O)N2CCC(=C3c4ccc(Cl)cc4CCc4cccnc43)CC2)cc1 [EX 31]	4.90
CCCC[C@H]1CN(C2c3ccc(Cl)cc3CCc3cc(Br)cnc32)CCN1C(=O)CC1CCN(C(N)=O)CC1 (some centres unmarked) [EX 37, Step C]	5.51
COCC[C@H]1CN(C2c3ccc(Cl)cc3CCc3cc(Br)cnc32)CCN1C(=O)CC1CCN(C(N)=O)CC1 (some centres unmarked) [EX 39, Step C]	> 5.80

Same assay, conditions: read-out: Cell Growth Inhibition MAT Assay Tumor Cells IC50 in µM

Compound	IC50
CCCC[C@H]1CN(C2c3ccc(Cl)cc3CCc3cc(Br)cnc32)CCN1C(=O)Cc1cc[n+]([O-])cc1 (some centres unmarked) [EX 36]	1.6 µM

Test system: Normal Cells
Assay: Cell Mat assay, cell growth inhibition, normal cells (methods of WO 95/10516)
Type: cell-based
Conditions: read-out: Cell Growth Inhibition MAT Assay Normal Cells IC50
Experimental: as §1

Compound	pIC50
COc1ccc(CSC[C@H](NC(=O)OC(C)(C)C)C(=O)N2CCC(=C3c4ccc(Cl)cc4CCc4cccnc43)CC2)cc1 [EX 30]	< 4.30
COc1ccc(CSC[C@H](N)C(=O)N2CCC(=C3c4ccc(Cl)cc4CCc4cccnc43)CC2)cc1 [EX 31]	4.74
CCCC[C@H]1CN(C2c3ccc(Cl)cc3CCc3cc(Br)cnc32)CCN1C(=O)CC1CCN(C(N)=O)CC1 (some centres unmarked) [EX 37, Step C]	4.74
COCC[C@H]1CN(C2c3ccc(Cl)cc3CCc3cc(Br)cnc32)CCN1C(=O)CC1CCN(C(N)=O)CC1 (some centres unmarked) [EX 39, Step C]	< 4.60

Same assay, conditions: read-out: Cell Growth Inhibition MAT Assay Normal Cells IC50 in µM

Compound	IC50
CCCC[C@H]1CN(C2c3ccc(Cl)cc3CCc3cc(Br)cnc32)CCN1C(=O)Cc1cc[n+]([O-])cc1 (some centres unmarked) [EX 36]	> 25 µM

Test system: COS Cells
Assay: COS cell assay, inhibition of RAS processing (cell-based, methods of WO 95/10516)
Conditions: read-out: Activity in COS Cells Inhibition of RAS Processing IC50
Experimental: as §1

Compound	pIC50
CCCC[C@H]1CN(C2c3ccc(Cl)cc3CCc3cc(Br)cnc32)CCN1C(=O)CC1CCN(C(N)=O)CC1 (some centres unmarked) [EX 37, Step C]	5.00 to 8.00
COCC[C@H]1CN(C2c3ccc(Cl)cc3CCc3cc(Br)cnc32)CCN1C(=O)CC1CCN(C(N)=O)CC1 (some centres unmarked) [EX 39, Step C]	5.00 to 8.00

Same assay, conditions: read-out: Activity in COS Cells Inhibition of RAS Processing IC50 in µM

Compound	IC50
CCCC[C@H]1CN(C2c3ccc(Cl)cc3CCc3cc(Br)cnc32)CCN1C(=O)Cc1cc[n+]([O-])cc1 (some centres unmarked) [EX 36]	0.01 to 10 µM
COCC[C@H]1CN(C2c3ccc(Cl)cc3CCc3cc(Br)cnc32)CCN1C(=O)Cc1cc[n+]([O-])cc1 (some centres unmarked) [Ex 38]	0.01 to 10 µM
